# Active and inactive are the calls of the source.
# Assays:
# [1] = restored growth of temperature-sensitive Burl-1 yeast – whole organism, S. cerevisiae, Burl-1 ts mutant, luminescence, counter-screen for SUMOylation pathway inhibitor project, dose response (AID 463199); format: functional
# [2] = target: T1, Heat shock factor protein 1 (Mus musculus, UniProt P38532); experiment: enhancement of HSF1-driven luciferase signal – cell-based, NIH3T3, luminescence, dose retest, confirmation (AID 435004); format: functional;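 note: stress induced by proteasome inhibitor MG132 added 30 min after compound; luciferase reporter driven by HSF1 response element in NIH3T3 cells; actives raise luminescence as potentiators of the MG132 stress response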
# T1 sequence (P38532 whole entry): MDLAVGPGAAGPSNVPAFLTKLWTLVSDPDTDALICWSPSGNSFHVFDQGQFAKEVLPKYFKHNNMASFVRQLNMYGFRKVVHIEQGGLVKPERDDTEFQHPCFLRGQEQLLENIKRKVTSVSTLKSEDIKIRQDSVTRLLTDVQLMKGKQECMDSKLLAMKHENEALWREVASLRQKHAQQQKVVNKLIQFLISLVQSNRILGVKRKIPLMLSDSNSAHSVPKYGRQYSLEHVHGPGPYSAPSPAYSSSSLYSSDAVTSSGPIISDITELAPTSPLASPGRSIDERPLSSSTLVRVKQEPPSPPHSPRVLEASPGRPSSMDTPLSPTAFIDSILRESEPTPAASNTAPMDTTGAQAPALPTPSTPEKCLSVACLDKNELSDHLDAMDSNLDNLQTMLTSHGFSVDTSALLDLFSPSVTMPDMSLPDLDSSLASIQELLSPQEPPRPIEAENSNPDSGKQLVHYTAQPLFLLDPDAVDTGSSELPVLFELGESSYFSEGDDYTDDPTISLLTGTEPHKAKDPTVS
# [3] = target: T2, High affinity choline transporter 1 (Homo sapiens, UniProt Q9GZV3); experiment: human choline transporter blockers, potency – cell-based, 10-point CRC, membrane potential dye, dose response (AID 588401); format: functional;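 note: membrane potential dye fluorescence of choline-evoked depolarization via CHT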
# T2 sequence (Q9GZV3 whole entry): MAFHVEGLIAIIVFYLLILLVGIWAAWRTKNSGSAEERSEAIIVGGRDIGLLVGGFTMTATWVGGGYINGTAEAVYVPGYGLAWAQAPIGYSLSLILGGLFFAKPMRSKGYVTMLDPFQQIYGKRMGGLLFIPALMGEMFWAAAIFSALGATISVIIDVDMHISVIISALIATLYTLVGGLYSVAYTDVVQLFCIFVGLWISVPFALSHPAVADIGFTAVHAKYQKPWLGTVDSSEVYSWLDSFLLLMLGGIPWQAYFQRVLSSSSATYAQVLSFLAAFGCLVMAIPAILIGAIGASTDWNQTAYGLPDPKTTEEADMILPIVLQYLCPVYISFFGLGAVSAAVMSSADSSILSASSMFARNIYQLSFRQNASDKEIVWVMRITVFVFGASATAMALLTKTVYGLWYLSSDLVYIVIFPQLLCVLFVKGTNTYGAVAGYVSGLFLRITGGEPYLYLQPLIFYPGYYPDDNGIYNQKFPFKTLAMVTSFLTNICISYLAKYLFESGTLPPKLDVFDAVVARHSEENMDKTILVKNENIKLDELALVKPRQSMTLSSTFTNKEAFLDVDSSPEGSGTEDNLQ
# [4] = target: T2, High affinity choline transporter 1; experiment: human choline transporter blockers, potency – cell-based, 5-point CRC, membrane potential dye, dose response (AID 504840); format: functional
# [5] = target: Heat shock protein HSP 90-alpha (Homo sapiens, UniProt P07900); format: functional, organism-based
# [6] = tested on: Vero; experiment: cells; format: functional, cell-based; conditions: Chlorocebus sabaeus
# [7] = tested on: Vero; experiment: cells; format: functional; conditions: Chlorocebus sabaeus
smiles,measurement,setting,value
CCc1nnc(NC(=O)CSc2nc3c(cc2C#N)CCCC3)s1,AC50,[1],58.2 µM (active)
O=C(O)CC1=C(Nc2ccccc2)C(=O)N(c2ccccc2)C1c1ccc(Cl)cc1 (stereo unspecified),EC50,[2],> 260 µM (inactive)
same,IC50,[3],2.7 µM (active)
same,IC50,[4],8.1 µM (active)
O=C(NCCN1CCOCC1)Nc1ccc(Cl)cc1Cl,AC50,[1],68.1 µM (active)
Cc1ccc(S(=O)(=O)N(C(=O)c2ccncc2)c2ccc(OC(=O)c3ccncc3)cc2)c(C)c1,AC50,[5],1.72 µM (active)
COc1cccc(-n2c(CN3CCN(C)CC3)nc3ccc([N+](=O)[O-])cc3c2=O)c1,IC50,[6],14.7 µM (active)
same,CC50,[7],> 25 µM (active)
CCCCn1c(N)c(N(CC(C)C)C(=O)CSCC(=O)Nc2cccc(C)c2)c(=O)[nH]c1=O,AC50,[1],54.1 µM (active)
CCOC(=O)c1cc(C(=O)NC(C)c2ccccc2)c(O)nc1C (stereo unspecified),IC50,[3],0.34 µM (active)
same,IC50,[4],0.798 µM (active)

# From ChEMBL document CHEMBL1201862, “PubChem BioAssay data set” (2004)
